Reference: patent US20010044404A1, “Cleaning process and composition” (3M Innovative Properties Company, priority 1995, published 2001)

Key:
[1] = Mineral oil removal with boiling methyl decanoate/perfluorocompound mixture; conditions: boiling mixture 40 volume % methyl decanoate, 60 volume % perfluorocompound
Protocol: The above-described test coupon was dipped in white heavy mineral oil (available from Aldrich Chemical), was immersed in a boiling single-phase mixture of 40 volume % of a solvating agent comprising essentially methyl decanoate and 60 volume % of alkoxy-substituted perfluorocompound (a cleaning composition of the invention) for 60 seconds, was cooled for 60 seconds, and was then immersed in mixture vapor for 30 seconds. The percent oil removal was determined in the above-described manner.

[2] = Stability in the presence of acid (96% sulfuric acid, GLC); format: physicochemical
Protocol: To assess hydrolytic stability under acidic conditions, C4F9OCH3 (15 g, 0.06 mole) was combined with sulfuric acid (10 g of 96% by weight, 0.097 mole) in a 50 mL flask containing a stir bar and fitted with a reflux condenser. The resulting mixture was stirred for 16 hours at room temperature, and then the resulting upper fluorochemical phase was separated from the resulting lower sulfuric acid phase. […] Chem. 49, 4007 (1984), which states that “[f]luorine atoms attached to carbon which also bears an alkyl ether group are known to be labile to electrophilic reagents. They are readily hydrolyzed in concentrated sulfuric acid, thus providing a route to some esters of fluoroacids.”

[3] = Stability in the presence of oxidant (potassium permanganate in acetone); format: physicochemical; conditions: refluxed four hours
Protocol: To assess oxidative stability, potassium permanganate (20 g, 0.126 mole) was dissolved in acetone, and C4F9OCH3 (500 g of 99.9% purity, 2.0 mole) was added to the resulting solution. The solution was refluxed for four hours, with no indication that the permanganate had been consumed (as evidenced by the absence of brown MnO2). The refluxed solution was then distilled into a 500 mL Barrett trap filled with water. The lower fluorochemical phase of the resulting mixture was separated from the upper phase, was washed with four 1.5 L aliquots of water, and was dried by passage through a column of silica gel to yield 471 g of resulting product.

[4] = Closed cup flash point ASTM D3278-96; format: physicochemical
Protocol: Various properties were measured for C4F9OCH3, CHClFCF2OCH3, and blends of each ether compound with cosolvent, trans-1,2-dichloroethylene (hereinafter, t-DCE) or n-butyl bromide, at various weight ratios.

[5] = Perfluoropolyether oil removal in solvent vapor; conditions: Brayco 815Z; vapor over boiling liquid, 60 seconds
Protocol: The above-described aluminum coupon was dipped into Brayco 815Z perfluoropolyether oil (available from Castrol Inc., molecular weight of about 10,000) and then immersed in alkoxy-substituted perfluorocompound vapor (over the boiling liquid) for 60 seconds. The percent oil removal was determined in the above-described manner.

[6] = Hydrolytic stability under more severely basic conditions (aqueous KOH reflux); format: physicochemical; conditions: refluxed at 58° C. for 19 hours
Protocol: To assess hydrolytic stability under more severely basic conditions, C4F9OCH3 (125 g of 99.8% purity, 0.5 mole) was combined with potassium hydroxide ([…], dissolved in 26.1 g water) in a 250 mL flask equipped with an overhead stirrer, a condenser, and a thermometer, and the resulting solution was refluxed at 58° C. for 19 hours. Water (50 mL) was added to the solution after refluxing, and the resulting product was distilled. The lower fluorochemical phase of the resulting distillate was separated from the upper phase and was washed with water (100 mL) to yield 121.3 g of recovered C4F9OCH3, which was identical in purity and composition to the starting material (as shown by gas chromatography).

[7] = Stability in the presence of base: aqueous NaOAc, fluoride ion measurement; format: physicochemical; conditions: 10 g with 10 g 0.1M NaOAc, 110° C., 16 hours
Protocol: To assess hydrolytic stability, a ten gram sample of alkoxy-substituted perfluorocompound was combined with 10 g of 0.1M NaOAc and sealed in a 2.54 cm (internal diameter) by 9.84 cm Monel™ 400 alloy (66% nickel, 31.5% copper, and 1.2% iron and several minor components) tube (available from Paar Instrument Co. of Moline, Ill. as Part Number 4713cm). The tube was heated at 110° C. in a forced air convection oven for 16 hours. After cooling to room temperature, a 1 mL sample of the tube contents was diluted with 1 mL of total ionic strength adjustment buffer (TISAB, available from Orion Research, Inc., a mixture of 1,2-cyclohexylene dinitrilotetraacetic acid, deionized water, sodium acetate, sodium chloride, and acetic acid). The concentration of fluoride ion (resulting from any reaction of the perfluorocompound with the aqueous NaOAc) was measured using an Orion Model 720A Coulombmeter with a F-specific electrode which had been previously calibrated using 0.5 and 500 ppm F^− solutions. Based on the measured fluoride ion concentration, the rate at which HF had been generated by reaction of the aqueous NaOAc with the perfluorocompound was calculated.

[8] = Pump oil removal with n-C6H14/perfluorocompound mixture at room temperature, ultrasonic; conditions: 40 volume % n-C6H14, 60 volume % fluorinated component, 60 seconds
Protocol: The above-described test coupon was dipped into DuoSeal Pump Oil (available from Sargent-Welch) and was then immersed in a mixture of 40 volume % n-C6H14 and 60 volume % alkoxy-substituted perfluorocompound (a cleaning composition of the invention) for 60 seconds at room temperature with ultrasonic agitation. The percent oil removal was determined in the above-described manner.

[9] = Solvency properties: largest normal hydrocarbon alkane soluble at 50 percent by volume
Protocol: A number of potential solvents were tested for their ability to dissolve hydrocarbons of increasing molecular weight according to the procedure described in U.S. Pat. No. 5,275,669 (Van Der Puy et al.), the description of which is incorporated herein by reference. The data shown in Table 1 were obtained by determining the largest normal hydrocarbon alkane which was soluble in a particular solvent at a level of 50 percent by volume. The numbers in the Table correspond with the carbon number of the largest alkane, e.g., “8” refers to octane. Measurements were made from room temperature up to the boiling point of the solvent. For comparative purposes, hydrofluorocarbons (HFCs) and perfluorocarbons (PFCs) were also tested using this method.
Using essentially the above-described method, the solvency properties of other alkoxy-substituted perfluorocompounds were tested at room temperature.

[10] = Pump oil removal with boiling mixed terpenes/perfluorocompound mixture; conditions: boiling mixture 40 volume % mixed terpenes, 60 volume % fluorinated component
Protocol: The above-described test coupon was dipped into DuoSeal Pump Oil (available from Sargent-Welch), was immersed in a boiling mixture of 40 volume % of a solvating agent comprising mixed terpenes having a boiling range of 243-274° C. and 60 volume % of alkoxy-substituted perfluorocompound (a cleaning composition of the invention), was cooled for 60 seconds, and was then immersed in mixture vapor for 30 seconds. The percent oil removal was determined in the above-described manner.

[11] = Ability to dissolve halogenated oils (miscibility); format: physicochemical; conditions: room temperature
Protocol: The ability of alkoxy-substituted perfluorocompounds to dissolve several halogenated oils was determined by adding a measured amount of oil to alkoxy-substituted perfluorocompound until the resulting mixture became turbid or phase-split. […] The results (shown in Table 12) indicate that alkoxy-substituted perfluorocompounds have very high ability to dissolve halogenated oils. Thus, the perfluorocompounds can be used as carrier solvents for halogenated oils in the deposition of coatings of such oils on substrate surfaces.

[12] = 20 weight % ether, 80 % n-butyl bromide
[13] = 30 weight % ether, 70 % n-butyl bromide
[14] = 50 weight % ether, 50 % n-butyl bromide
[15] = 80 weight % ether, 20 % n-butyl bromide

COC(F)(F)C(F)(F)C(F)(F)C(F)(F)F [Example C4F9OCH3, perfluorobutyl methyl ether]
Percent Soil Removed [1]: 94.61% | Stability in the presence of acid ([2]; 96% sulfuric acid, 16 hours at room temperature): stable in the presence of the acid | Stability in Presence of Acid: conversion to ester ([2]; neat ether, sulfuric acid as in Stability in the Presence of Acid section): no rxn. (0% | Stability in the presence of oxidant [3]: stable in the presence of the oxidant | Closed Cup Flash Point (ASTM D3278-96) [4, 12]: none^4 | Closed Cup Flash Point (ASTM D3278-96) [4, 13]: none^4 | Closed Cup Flash Point (ASTM D3278-96) [4, 14]: none^4 | Closed Cup Flash Point (ASTM D3278-96) [4, 15]: none^4 | Closed Cup Flash Point (ASTM D3278-96) ([4]; 100 weight % ether, 0 % n-butyl bromide, raised to 140° F. (60° C.)): none^4 | Percent Soil Removed [5]: 89.9% | Stability in the presence of base [6]: stable in the presence of the base | HF Generation Rate [7]: 0.67 µg/g/h | Percent Soil Removed [8]: 92.5% | Largest Carbon Number of Longest Hydrocarbon Alkane to Dissolve [9, 12]: 21 | Largest Carbon Number of Longest Hydrocarbon Alkane to Dissolve ([9]; 20 weight % ether, 80 % t-DCE): 22 | Largest Carbon Number of Longest Hydrocarbon Alkane to Dissolve [9, 13]: 21 | Largest Carbon Number of Longest Hydrocarbon Alkane to Dissolve [9, 14]: 15 | Largest Carbon Number of Longest Hydrocarbon Alkane to Dissolve ([9]; 50 weight % ether, 50 % t-DCE): 16 | Largest Carbon Number of Longest Hydrocarbon Alkane to Dissolve [9, 15]: 11 | Largest Carbon Number of Longest Hydrocarbon Alkane to Dissolve ([9]; 80 weight % ether, 20 % t-DCE): 11 | Largest Carbon Number of Longest Hydrocarbon Alkane to Dissolve ([9]; 100 weight % ether, 0 % n-butyl bromide): 9 | Largest Carbon Number of Longest Hydrocarbon Alkane to Dissolve ([9]; 100 weight % ether, 0 % t-DCE): 9 | Percent Soil Removed [10]: 86.4% | Miscibility with solute ([11]; Brayco 815Z Perfluoropolyether (MW about 10,000)): Miscible (greater than or equal to 50 percent by volume solubility at room temperature) | Miscibility with solute ([11]; Chlorotrifluoroethylene Fluid (Inland 41 Vacuum Pump Oil)): Miscible (greater than or equal to 50 percent by volume solubility at room temperature) | Miscibility with solute ([11]; Fomblin AM-2001 Functionalized Perfluoropolyether): Miscible (greater than or equal to 50 percent by volume solubility at room temperature)
